In patent publication US7332507B2, “3-substituted quinuclidines and their use” (Neurosearch A/S, priority 2002, dated 2008):
Where a name gives a salt, the structure may show the parent alone.

Biological target: T1, α7-subtype of nicotinic receptors (Rattus norvegicus, UniProt Q05941)
T1 construct: Cerebral cortices from male Wistar rats (150-250 g) are homogenised; from tissue; host or cells: rat cerebral cortex membrane homogenate (male Wistar rats)
Assay: In vitro inhibition of 3H-α-bungarotoxine binding in rat brain
Conditions: rat cerebral cortex homogenate; 3H-α-bungarotoxine 2 nM; 2 hours at 37° C.

T1 sequence (Q05941 23-502): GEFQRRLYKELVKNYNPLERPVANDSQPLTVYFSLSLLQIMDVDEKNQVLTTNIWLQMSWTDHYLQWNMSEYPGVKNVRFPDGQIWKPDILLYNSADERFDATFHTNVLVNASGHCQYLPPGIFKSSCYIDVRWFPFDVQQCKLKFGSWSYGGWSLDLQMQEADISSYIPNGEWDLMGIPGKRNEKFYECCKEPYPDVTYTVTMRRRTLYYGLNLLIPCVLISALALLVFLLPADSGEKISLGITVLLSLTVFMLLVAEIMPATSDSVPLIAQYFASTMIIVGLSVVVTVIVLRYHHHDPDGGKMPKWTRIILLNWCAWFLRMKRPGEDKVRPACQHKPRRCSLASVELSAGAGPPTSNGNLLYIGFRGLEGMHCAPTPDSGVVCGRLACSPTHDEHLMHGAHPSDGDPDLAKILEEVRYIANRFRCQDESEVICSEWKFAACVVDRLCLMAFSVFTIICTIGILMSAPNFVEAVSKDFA

c1ccc2c(c1)ncn2C1CN2CCC1CC2 (racemic) [Compound A1, (±)-3-(1-Benzimidazolyl)-quinuclidine fumaric acid salt]
IC50: 400 nM
